Data reported in patent publication US20230167105A1, “BCL-2 PROTEIN INHIBITORS” (Recurium IP Holdings, LLC, priority 2020, published 2023).

Legend:
Bcl-xL = biological target: T1, Bcl-xL (Homo sapiens, UniProt Q07817); test: Protein Degradation Assay in MOLT-4 Cells (Western blot); format: cell-based; conditions: for BCL-xL degradation in MOLT-4 cells: 50 nM compound, 16 hours, FIGS. 7 and 8; for BCL-xL degradation in MOLT-4 cells, dose dependence: FIG. 9; for Bcl-xL degradation with proteasome inhibitor MG132: MOLT-4 cells pretreated with 1 μM MG132 for 1 hour, then 100 nM compound for 16 h, FIG. 10
T1 construct: endogenous in cells; host or cells: MOLT-4 (ATCC CRL-1582)
Protocol: MOLT-4 (ATCC, CRL-1582) (FIGS. 7,8) were incubated with vehicle or 50 nM concentrations of the indicated compounds for 16 hours. For proteasome inhibition, MOLT-4 cells (250,000 cells/well) were pretreated with 1 μM of MG132 for 1 hour before the addition of 100 nM of the indicated compounds for 16 h. After treatment, the cells were harvested in RIPA lysis buffer supplemented with 1% Phosphatase Inhibitor and Protease Inhibitor Cocktail. An equal amount of protein (10 μg/lane) from each cell extract was resolved on a 4-12% Bis-Tris gel. Proteins were transferred using iBlot 2 Transfer Stacks. The membranes were blocked with 5% nonfat milk in TBS-T buffer (50 mM Tris-HCL, pH 7.6; 150 mM NaCl; and 0.05% Tween) and probed with primary antibodies (1:1000 dilution) overnight at 4° C. After three washes with TBS-T (10 min/wash), the membranes were incubated with an appropriate peroxidase-conjugated secondary antibody (Cell Signaling Technology, USA) for 1 hour at rt. After three washes with TBS-T, the proteins of interest were detected with ECL Western Blotting Detection Reagents and captured with an Azure imaging system. The band intensities were determined using ImageJ software and normalized to loading control β-actin or GAPDH. The primary antibodies Bcl-xL (#2762), Bcl-2 (#2872s), and GAPDH (#5174) were purchased from Cell Signaling Technology.

MOLT-4 cells = test: MOLT-4 Cell Proliferation Assay (CellTiter-Glo); format: cell-based; conditions: Homo sapiens, 72 h, read-out: MOLT-4 CTG IC50
Method in brief: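 MOLT-4 cells at 50,000/well in serum-supplemented medium received a 10-point 1:3 dilution series (top 10 μM final, 0.1% DMSO) in duplicate for 72 h at 37 °C. Viability was read as CellTiter-Glo luminescence, and IC50 came from nonlinear regression.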

T1 sequence (Q07817 whole entry): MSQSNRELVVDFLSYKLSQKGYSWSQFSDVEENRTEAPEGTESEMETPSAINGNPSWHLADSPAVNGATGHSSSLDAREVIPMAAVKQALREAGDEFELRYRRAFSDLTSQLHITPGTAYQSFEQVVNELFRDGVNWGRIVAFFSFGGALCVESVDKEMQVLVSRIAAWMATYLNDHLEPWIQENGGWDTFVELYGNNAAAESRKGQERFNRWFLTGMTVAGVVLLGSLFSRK

BCL-xL degradation in MOLT-4 cells (Bcl-xL)	IC50 (MOLT-4 cells)	SMILES	BCL-xL degradation in MOLT-4 cells, dose dependence (Bcl-xL)	Bcl-xL degradation with proteasome inhibitor MG132 (Bcl-xL)
induce BCL-xL degradation	50 to 150 nM	Cc1ncsc1-c1ccc([C@H](C)NC(=O)[C@@H]2C[C@@H](O)CN2C(=O)[C@@H](NC(=O)CCCCC(=O)N(C)C2CCN(CC[C@H](CSc3ccccc3)Nc3ccc(S(=O)(=O)NC(=O)c4ccc(N5CCN(CC6=C(C78CC(C(F)F)(C7)C8)CC(C)(C)CC6)CC5)cc4)cc3S(=O)(=O)C(F)(F)F)CC2)C(C)(C)C)cc1 [Example 43, N1-(1-((R)-3-((4-(N-(4-(4-((2-(3-(difluoromethyl)bicyclo[1.1.1]pentan-1-yl)-4,4-dimethylcyclohex-1-en-1-yl)methyl)piperazin-1-yl)benzoyl)sulfamoyl)-2-((trifluoromethyl)sulfonyl)phenyl)amino)-4-(phenylthio)butyl)piperidin-4-yl)-N6-((S)-1-((2S,4R)-4-hydroxy-2-(((S)-1-(4-(4-methylthiazol-5-yl)phenyl)ethyl)carbamoyl)pyrrolidin-1-yl)-3,3-dimethyl-1-oxobutan-2-yl)-N1-methyladipamide]	–	–
induce BCL-xL degradation	50 to 150 nM	Cc1ncsc1-c1ccc([C@H](C)NC(=O)[C@@H]2C[C@@H](O)CN2C(=O)[C@@H](NC(=O)CCCCCC(=O)N(C)C2CCN(CC[C@H](CSc3ccccc3)Nc3ccc(S(=O)(=O)NC(=O)c4ccc(N5CCN(CC6=C(C78CC(C(F)F)(C7)C8)CC(C)(C)CC6)CC5)cc4)cc3S(=O)(=O)C(F)(F)F)CC2)C(C)(C)C)cc1 [Example 44, N1-(1-((R)-3-((4-(N-(4-(4-((2-(3-(difluoromethyl)bicyclo[1.1.1]pentan-1-yl)-4,4-dimethylcyclohex-1-en-1-yl)methyl)piperazin-1-yl)benzoyl)sulfamoyl)-2-((trifluoromethyl)sulfonyl)phenyl)amino)-4-(phenylthio)butyl)piperidin-4-yl)-N7-((S)-1-((2S,4R)-4-hydroxy-2-(((S)-1-(4-(4-methylthiazol-5-yl)phenyl)ethyl)carbamoyl)pyrrolidin-1-yl)-3,3-dimethyl-1-oxobutan-2-yl)-N1-methylheptanediamide]	–	–

The remaining lines, values behind:

SMILES	BCL-xL degradation in MOLT-4 cells (Bcl-xL)	IC50 (MOLT-4 cells)	BCL-xL degradation in MOLT-4 cells, dose dependence (Bcl-xL)	Bcl-xL degradation with proteasome inhibitor MG132 (Bcl-xL)
Cc1ncsc1-c1ccc([C@H](C)NC(=O)[C@@H]2C[C@@H](O)CN2C(=O)[C@@H](NC(=O)CCCCCC(=O)N2CCN(CC[C@H](CSc3ccccc3)Nc3ccc(S(=O)(=O)NC(=O)c4ccc(N5CCN(CC6=C(C78CC(C(F)F)(C7)C8)CC(C)(C)CC6)CC5)cc4)cc3S(=O)(=O)C(F)(F)F)CC2)C(C)(C)C)cc1 [Example 6, (2S,4R)-1-((S)-2-(7-(4-((R)-3-((4-(N-(4-(4-((2-(3-(difluoromethyl)bicyclo[1.1.1]pentan-1-yl)-4,4-dimethylcyclohex-1-en-1-yl)methyl)piperazin-1-yl)benzoyl)sulfamoyl)-2-((trifluoromethyl)sulfonyl)phenyl)amino)-4-(phenylthio)butyl)piperazin-1-yl)-7-oxoheptanamido)-3,3-dimethylbutanoyl)-4-hydroxy-N—((S)-1-(4-(4-methylthiazol-5-yl)phenyl)ethyl)pyrrolidine-2-carboxamide]	induce BCL-xL degradation	50 to 150 nM	can induce BCL-xL degradation in MOLT-4 cells in a dose dependent manner	can be inhibited by proteasome inhibitor MG132
Cc1ncsc1-c1ccc([C@H](C)NC(=O)[C@@H]2C[C@@H](O)CN2C(=O)[C@@H](NC(=O)CCCCCC(=O)N2CCN(CC[C@H](CSc3ccccc3)Nc3ccc(S(=O)(=O)NC(=O)c4ccc(N5CCN(CC6=C(C78CC(C)(C7)C8)CC(C)(C)CC6)CC5)cc4)cc3S(=O)(=O)C(F)(F)F)CC2)C(C)(C)C)cc1 [Example 9, (2S,4R)-1-((S)-2-(7-(4-((R)-3-((4-(N-(4-(4-((4,4-dimethyl-2-(3-methylbicyclo[1.1.1]pentan-1-yl)cyclohex-1-en-1-yl)methyl)piperazin-1-yl)benzoyl)sulfamoyl)-2-((trifluoromethyl)sulfonyl)phenyl)amino)-4-(phenylthio)butyl)piperazin-1-yl)-7-oxoheptanamido)-3,3-dimethylbutanoyl)-4-hydroxy-N—((S)-1-(4-(4-methylthiazol-5-yl)phenyl)ethyl)pyrrolidine-2-carboxamide]	induce BCL-xL degradation	50 to 150 nM	–	–
Cc1ncsc1-c1ccc([C@H](C)NC(=O)[C@@H]2C[C@@H](O)CN2C(=O)[C@@H](NC(=O)CCCCCCCC(=O)N2CCN(CC[C@H](CSc3ccccc3)Nc3ccc(S(=O)(=O)NC(=O)c4ccc(N5CCN(CC6=C(C78CC(C)(C7)C8)CC(C)(C)CC6)CC5)cc4)cc3S(=O)(=O)C(F)(F)F)CC2)C(C)(C)C)cc1 [Example 24, (2S,4R)-1-((S)-2-(9-(4-((R)-3-((4-(N-(4-(4-((4,4-dimethyl-2-(3-methylbicyclo[1.1.1]pentan-1-yl)cyclohex-1-en-1-yl)methyl)piperazin-1-yl)benzoyl)sulfamoyl)-2-((trifluoromethyl)sulfonyl)phenyl)amino)-4-(phenylthio)butyl)piperazin-1-yl)-9-oxononanamido)-3,3-dimethylbutanoyl)-4-hydroxy-N—((S)-1-(4-(4-methylthiazol-5-yl)phenyl)ethyl)pyrrolidine-2-carboxamide]	induce BCL-xL degradation	50 to 150 nM	–	–
Cc1ncsc1-c1ccc([C@H](C)NC(=O)[C@@H]2C[C@@H](O)CN2C(=O)[C@@H](NC(=O)CCCCCCN2CCN(CC[C@H](CSc3ccccc3)Nc3ccc(S(=O)(=O)NC(=O)c4ccc(N5CCN(CC6=C(C78CC(C)(C7)C8)CC(C)(C)CC6)CC5)cc4)cc3S(=O)(=O)C(F)(F)F)CC2)C(C)(C)C)cc1 [Example 25, (2S,4R)-1-((S)-2-(7-(4-((R)-3-((4-(N-(4-(4-((4,4-dimethyl-2-(3-methylbicyclo[1.1.1]pentan-1-yl)cyclohex-1-en-1-yl)methyl)piperazin-1-yl)benzoyl)sulfamoyl)-2-((trifluoromethyl)sulfonyl)phenyl)amino)-4-(phenylthio)butyl)piperazin-1-yl)heptanamido)-3,3-dimethylbutanoyl)-4-hydroxy-N—((S)-1-(4-(4-methylthiazol-5-yl)phenyl)ethyl)pyrrolidine-2-carboxamide]	induce BCL-xL degradation	50 to 150 nM	–	–
Cc1ncsc1-c1ccc([C@H](C)NC(=O)[C@@H]2C[C@@H](O)CN2C(=O)[C@@H](NC(=O)CCCCCCCN(C)CC[C@H](CSc2ccccc2)Nc2ccc(S(=O)(=O)NC(=O)c3ccc(N4CCN(CC5=C(C67CC(C(F)F)(C6)C7)CC(C)(C)CC5)CC4)cc3)cc2S(=O)(=O)C(F)(F)F)C(C)(C)C)cc1 [Example 28, (2S,4R)-1-((S)-2-(8-(((R)-3-((4-(N-(4-(4-((2-(3-(difluoromethyl)bicyclo[1.1.1]pentan-1-yl)-4,4-dimethylcyclohex-1-en-1-yl)methyl)piperazin-1-yl)benzoyl)sulfamoyl)-2-((trifluoromethyl)sulfonyl)phenyl)amino)-4-(phenylthio)butyl)(methyl)amino)octanamido)-3,3-dimethylbutanoyl)-4-hydroxy-N—((S)-1-(4-(4-methylthiazol-5-yl)phenyl)ethyl)pyrrolidine-2-carboxamide]	induce BCL-xL degradation	50 to 150 nM	–	–
CC1(C)CCC(CN2CCN(c3ccc(C(=O)NS(=O)(=O)c4ccc(N[C@H](CCN5CCN(CCCC#Cc6ccc7c(c6)CN(C6CCC(=O)NC6=O)C7=O)CC5)CSc5ccccc5)c(S(=O)(=O)C(F)(F)F)c4)cc3)CC2)=C(C23CC(C(F)F)(C2)C3)C1 (stereo partly shown) [Example 30]	–	≤ 50 nM	can induce BCL-xL degradation in MOLT-4 cells in a dose dependent manner	can be inhibited by proteasome inhibitor MG132
